# Experimental data from publication PMC9066070, “RGI‐GOLVEN signaling promotes cell surface immune receptor abundance to regulate plant immunity” (EMBO Reports, 2022).
# Entries after “also recorded” stand apart in the source; their conditions may differ. Non-standard residues stand in square brackets, D forms with d. Residues, ends and D or L forms follow the SMILES beside them. No end group written: not given here. *: point of attachment. SO3H = sulfated tyrosine (TyrSO3H2), O=S(=O)(O)*; Hyp = O=C(O)[C@@H]1C[C@@H](O)CN1; Cbz = O=C(OCc1ccccc1)*
# T1: ectodomain of RGI3 with C-terminal Strep II-9x His tag (RGI3^ECD-Strep II-9x His) (Arabidopsis thaliana, UniProt C0LGR3 25-703, fluorescent dye by Monolith Protein Labeling Kit RED-tris-NTA Second Generation (His-tag reactive))
# T1 construct: It was cloned into the baculovirus transfer vector pMeIBac B1 for secreted expression; not shown: Strep II-9x His, C-terminal, kept
# T1 sequence (looked up): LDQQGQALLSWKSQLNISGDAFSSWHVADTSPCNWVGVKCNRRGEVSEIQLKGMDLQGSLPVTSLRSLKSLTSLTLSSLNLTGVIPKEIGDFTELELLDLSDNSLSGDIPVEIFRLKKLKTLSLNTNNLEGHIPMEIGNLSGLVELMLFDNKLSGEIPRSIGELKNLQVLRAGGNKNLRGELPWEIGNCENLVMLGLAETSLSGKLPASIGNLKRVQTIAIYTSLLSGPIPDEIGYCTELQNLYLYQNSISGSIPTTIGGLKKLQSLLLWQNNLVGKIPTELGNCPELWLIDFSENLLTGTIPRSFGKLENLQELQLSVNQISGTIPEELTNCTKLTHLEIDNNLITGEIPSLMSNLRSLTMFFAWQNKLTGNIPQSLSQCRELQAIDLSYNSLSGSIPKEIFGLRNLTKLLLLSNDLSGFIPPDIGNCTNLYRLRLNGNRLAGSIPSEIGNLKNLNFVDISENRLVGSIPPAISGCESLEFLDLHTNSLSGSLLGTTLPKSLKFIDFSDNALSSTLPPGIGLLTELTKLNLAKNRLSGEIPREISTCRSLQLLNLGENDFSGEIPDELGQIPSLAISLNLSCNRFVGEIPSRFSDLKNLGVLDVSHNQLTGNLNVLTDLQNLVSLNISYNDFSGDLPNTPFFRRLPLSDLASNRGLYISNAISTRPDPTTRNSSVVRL
# How the values were obtained:
# 26S proteasome = assay: FLS2 accumulation in rgi5x after MG132 treatment, western blot; type: in vivo, Arabidopsis thaliana; settings: rgi5x seedlings, 50 μM MG132, 1 h
# Method: Figure 6 GLV2 perception by RGIs promotes maximal FLS2 abundance independent of transcription • Twelve‐day‐old WT or 35S::GLV2 8‐5 seedlings were treated with mock or 1 μM GLV2 for 24 h before protein extraction. Western blots were probed with α‐FLS2 or α‐BAK1 antibodies. CBB: Coomassie brilliant blue. • Quantitative real‐time PCR of FLS2 transcripts from 12‐day‐old seedlings treated with mock or 1 μM GLV2 for the indicated time, n = 3 biological replicates. UBQ was used as a house keeping gene. […] Western blot was probed with α‐FLS2 antibodies. • Protein extraction was performed from 12‐day‐old seedlings after 1 h treatment with mock or 50 μM MG132. Western blots were probed with α‐FLS2 antibodies. Data information: Similar results were obtained in three independent experiments. Source data are available online for this figure.
# FLS2 transcription = test system: FLS2 transcription; set-up: method as in Flury et al, 2013; Tintor et al, 2013; Hou et al, 2014; settings: ref Flury et al, 2013, Tintor et al, Hou et al, 2014; cited from earlier work
# PRR-BAK1 complex = settings: ref Stegmann et al, 2017; cited from earlier work
# From the text: FER controls FLS2-BAK1 and EFR-BAK1 complex formation independent of protein accumulation ([…] et al, [2017]). In contrast to GLV2 treatment, the FER ligand RALF23 inhibits PRR-BAK1 complex formation. […] Whether GLV2's promotion of PRR complex formation and the regulation of PRR ...
# [1] = target: T1, ectodomain of RGI3 with C-terminal …; settings: both partners purified
molecule,measurement,setting,value
CC(C)C[C@@H](C=O)NC(=O)[C@H](CC(C)C)NC(=O)[C@H](CC(C)C)NC(=O)OCc1ccccc1 [MG132] (Cbz-Leu-Leu-Leu-aldehyde),FLS2 accumulation defect of rgi5x,26S proteasome,partial restoration; also recorded: partially rescued
"PIP1: PATHOGEN-ASSOCIATED MOLECULAR PATTERN (PAMP)-INDUCED PEPTIDE perceived by RLK7 (GRVLTEKSGDGSATMTVEKMKSTVDSWFQRLASGPSPRGRGH; PAMP-induced secreted peptide 1; UniProt Q1PE40 31-72, looked up)",FLS2 transcription,FLS2 transcription,upregulation of FLS2 transcription
"RALF23: FER ligand; RAPID ALKALINIZATION FACTOR peptide (ATRRYISYGALRRNTIPCSRRGASYYNCRRGAQANPYSRGCSAITRCRRS; Protein RALF-like 23; UniProt Q9LUS7 89-138, looked up)",PRR-BAK1 complex formation,PRR-BAK1 complex,inhibits PRR‐BAK1 complex formation
"DMDY(SO3H)NSANKKR[Hyp]IHN (mature GLV2 peptide cut from the GLV2 precursor, Arabidopsis thaliana; also called synthetic GLV2; source: synthetic peptide (Pepmic, Suzhou, China; purity minimum 90%)) [GOLVEN2 (GLV2) peptide, tyrosine-sulfated]",Kd,[1],11.8 nM
"DMDYNSANKKRPIHN (without sulfated tyrosine, mature GLV2 peptide cut from the GLV2 precursor, Arabidopsis thaliana, tyrosine not sulfated; also called GLV^-S; source: synthetic peptide (Pepmic, Suzhou, China; purity minimum 90%)) [GLV2 peptide without sulfated tyrosine (GLV2^-S)]",Kd,[1],129 nM
